Reference: patent publication US20260083853A1, “CD70 ANTIBODY DRUG CONJUGATES AND METHODS OF USING THE SAME” (Genmab A/S, priority 2022, published 2026)

Test system: human CD70-expressing tumor cells (Raji, Caki-1, 786-O)
Assay: In vitro cytotoxicity (CTG, 96 h), all cell lines
Assay type: cell-based
Protocol: Raji (ATCC, CCL-86), Caki-1 (Cobioer, CBP60448), and 786-O (BNCC, BNCC338472) were cultured in CO2 thermostatic incubator at 37° C. with 5% CO2 in standard conditions. Cells were sub-cultured every 1-2 days, digested with 0.25% trypsin and passaged with a suitable density. When the cells were in the logarithmic growth phase and the amount meeting the assay's demand, cells were collected and plated onto 96-well solid white flat bottom plates for assay. One day later test articles (2E7 antibody or 2E7-LD038 conjugate ranging from 2 μM to 0.1 nM, or exatecan ranging from 20 μM to 0.03 nM) were added to the cells. Plates were then incubated at 37° C. for 96 h. Cell Titer Glo (CTG) (40 μl per well) was subsequently added to the plates. Luciferase reading was collected 5 min after and analyzed by Microplate readers. All readings were normalized as percentage of viable cells in the untreated control wells and the IC50 values were calculated by Prism software.

Which cytotoxicity does the source give for CC[C@@]1(O)C(=O)OCc2c1cc1n(c2=O)Cc2c-1nc1cc(F)c(C)c3c1c2[C@@H](N)CC3 [Exatecan, exatecan] here?
The cytotoxicity was “cytotoxic on all cell lines”.
